Results as given in patent US8936809B2, “Method for treating prostate diseases based on local delivery of active substances” (Lidds AB, priority 2005, dated 2015).
“And” between values parts separate entries of the source, which are not always exact repeats. Equal values may be shown once. Read-outs that look alike come from different tables or passages of the source.

How the values were obtained:
prostate tissue = assay: Efficacy and safety of local prostate implant in male beagle dogs: side effects, urinated volume, histopathology (Example 3); assay type: in vivo, dog
Experimental: The major purpose of the present animal study was to examine the efficacy and safety of the new local drug delivery system with 2-hydroxyflutamide, a selective antagonist of the androgen receptor (AR) as the active moiety in human prostate tissue during various treatment periods in male dogs. The dog has been selected as the test model because of its proven suitability in this type of study. The study was performed in 12 male beagle dogs from Harlan Winkelmann GmbH, Germany. The sterile controlled release implant was composed of ceramic compounds and 2-hydroxyflutamide. Storage and handling instructions were given. The composition of the formulation of the low and high dose was 250 mg of 2-hydroxyflutamide +2.25 g calcium sulphate […] +5.0 g calcium sulphate hemi-hydrate and it was mixed with solution: 3.5 ml of water solution (with 1% acetic acid and 1% methyl cellulose). The final formulation work was done during sterile conditions by trained personal at the experimental day. […] The animals were fasted for at least 12 hours prior to the insertion procedure on Day 1. The implant drug delivery system was inserted locally into the prostate tissue, via rectum, through sterile needles during rectal ultrasound guidance. Each animal was under anesthesia during the insertion procedure.

[1] = Observation of behaviour and side effects (diarrhea) in dogs (Example 1); assay type: in vivo, dog
Experimental: First, four male dogs (H1-H4) (Labrador, approx. 1 year of age and weight 30 kg) were given 2-hydroxy-flutamide (25 mg) by single bolus doses intravenously during 30 seconds. The intravenous solution base was sterile saline […], sterile polyethylene glycol 400 46% and ethanol (95%) 6%. Blood samples of 1.0 ml were taken from the Cephalic vein at 5, 10, 15, 30, 60, 90, 120, 240, 360, and 600 minutes. The blood samples were immediately centrifuged at 3000 rpm and the plasma samples were frozen at −80° C. until analysis.
One week later, the same animals were given 2-hydroxy-flutamide locally by a controlled release pharmaceutical composition in the prostate tissue. The 2-hydroxy- flutamide doses were 0 mg (H1), 30 mg (H3), 60 mg (H2) and 120 mg (H4), and each dog was given one implant only. Where H1 was a control given the composition without 2-hydroxy-flutamide. All doses of 2-hydroxy-flutamide were given after an overnight fast. Dog 1 (H1) and dog 3 (H3) were given an enema preoperatively. After the local prostate application of the pharmaceutical composition through rectum, an antibiotic (Quinolon) was administered in normal doses.

[2] = Plasma pharmacokinetics and tissue level after controlled release implant into bulbourethral gland of male sheep (Example 2); assay type: in vivo
Experimental: (§1) The major purpose of the present animal study was to examine the pharmacokinetics, efficacy and safety of the novel local drug delivery system with 2-hydroxyflutamide, a selective antagonist to the androgen receptor (AR). A ceramic based drug delivery product was administered into an androgen dependent tissue (the bulbourethral gland) in male sheep. In total 11 male sheep were divided into two separate groups. One group was given 2-hydroxyflutamide by the local implant delivery system as a single administration into the bulbourethral gland and was monitored during 2 months. Each sheep in this treatment group received the prostate implant by a single dose of 250 mg. The other group only received ceramic formulation without any active drug substance.
The implant drug delivery system was inserted locally, via rectum, into the androgen dependent tissue (bulbourethral gland) through sterile needles during rectal ultrasound guidance. The animals were during anaesthesia throughout the insertion procedure. The sterile ceramic based implant had two major components: calcium sulphate (CaSO4-0.5H2O) and 2-hydroxyflutamide. The composition of the formulation was 250 mg 2-hydroxyflutamide+2.25 g calcium sulphate di-hydrate+5.0 g calcium sulphate hemi-hydrate and it was mixed with solution: 3.5 ml of water solution (with 1% acetic acid and 1% methyl cellulose). […] The amount injected into each lobe of the androgen sensitive bulbourethral gland was about 2.0-3.0 ml.
Quantification of 2-hydroxy-flutamide in plasma samples was done by HPLC-MS. HPLC was performed with a Surveyor HPLC system equipped with a CTC Pal autosampler. The analytical column was a Zorbax Eclipse XDB-18 (2.1 mm×50 mm, particle size 5 μm) connected to a guard column. The calibration curves were constructed by linear regression of the peak area ratio of 2-hydroxy-flutamide and internal standard as a function of 2-hydroxy-flutamide concentrations. The method performance was studied using quality control (QC) samples, which were prepared by spiking blank plasma with 2-hydroxy-flutamide.
Sheep plasma (unknown, QC or calibration sample) at a volume of 100 μL was mixed with 100 μL of internal standard solution (nilutamide at 0.025 μg/mL) and 250 μL of acetonitrile. A subsequent vortex mix was performed for 20 seconds followed by a centrifugation for 10 minutes. […] of the supernatant was transferred to a clean test tube and evaporated to dryness at 50° C. in a gentle stream of nitrogen. The residue was reconstituted in 100 μL aqueous formic acid (0.1%) and transferred to a vial for LC-MS/MS analysis.
The formulation was successfully administered in 11 male sheep. Based on the plasma exposure profile the pharmacokinetic variables were calculated with standard methods (Table 4).

dog prostate tissue = assay: Macroscopic anti-proliferate effect on dog prostate tissue: volume before, weight after, palpation (Example 1); assay type: in vivo; design: key to Palpation: 0 = no effect; + = mild effect; ++ = intermediate; +++ = strong effect; details: for Weight of prostate tissue (after): termination after day 20
Text: After day 20, each dog was terminated with an intravenous dose of a mixture of pentobarbital and potassium. The following organs were surgical removed and frozen: prostate, testis, liver and kidney for the assessment of effect and safety. These organs were carefully examined as a consequence of the local tissue exposure of 2-hydroxy-flutamide and the ceramic-based implant. The macroscopic pharmacological anti-proliferate effect of 2-hydroxy-flutamide was examined as the volume-weight ratio of the dog prostate tissue before and after the local administration of 2-hydroxy-flutamide as a single controlled release pharmaceutical composition.

[3] = test system: androgen dependent tissue (bulbourethral gland); assay: Local anti-androgen effect and side effects after implant into bulbourethral gland of male sheep (Example 2); assay type: in vivo
Experimental: as §1
The implant drug delivery system was inserted locally, via rectum, into the androgen dependent tissue (bulbourethral gland) through sterile needles during rectal ultrasound guidance. The animals were during anaesthesia throughout the insertion procedure. The sterile ceramic based implant had two major components: calcium sulphate (CaSO4-0.5H2O) and 2-hydroxyflutamide. The composition of the formulation was 250 mg 2-hydroxyflutamide+2.25 g calcium sulphate di-hydrate+5.0 g calcium sulphate hemi-hydrate and it was mixed with solution: 3.5 ml of water solution (with 1% acetic acid and 1% methyl cellulose). […]

[4] = local prostate implant 250 mg or 500 mg
[5] = male sheep plasma, 250 mg implant into bulbourethral gland, individual animals

## CC(C)(O)C(=O)Nc1ccc([N+](=O)[O-])c(C(F)(F)F)c1 [2-hydroxy-flutamide]
Prostate tissue; [4]
  diarrhea: no diarrhea observed
  effect of the treatment on the urinated volume: no effect
  side-effects: no side-effects were observed
Prostate tissue; treated groups, local prostate implant
  microscopic findings of the prostate tissue (histopathology): increased incidence of vacuolation and cystic acini
[1]; after intravenous administration 25 mg
  diarrhea: all dogs suffered from diarrhea
[1]; after local administration of the controlled release composition in the prostate tissue
  diarrhea: not observed in any animals
[2]; [5]
  AUC: 3725 ng·h/mL and 3390 ng·h/mL and 3755 ng·h/mL and 1855 ng·h/mL and 4948 ng·h/mL and 4436 ng·h/mL and 4287 ng·h/mL
  Cmax: 84 ng/mL and 35 ng/mL and 19.8 ng/mL and 16.3 ng/mL and 34 ng/mL and 31 ng/mL and 26 ng/mL
  t½: 253 h and 117 h and 67 h and 168 h and 119 h and 140 h and 159 h
[2]; male, sheep, plasma, 250 mg, male sheep, 250 mg implant into bulbourethral gland, Mean of seven sheep
  Tmax: 9 h
[2]; male, sheep, plasma, 250 mg, male sheep, 250 mg implant into bulbourethral gland, Mean of seven sheep, read-out: AUC
  AUC: 3770 ng·h/mL
[2]; male, sheep, plasma, 250 mg, male sheep, 250 mg implant into bulbourethral gland, Mean of seven sheep, read-out: Cmax
  Cmax: 42 ng/mL
[2]; male, sheep, plasma, 250 mg, male sheep, 250 mg implant into bulbourethral gland, Mean of seven sheep, read-out: t½ (converted)
  half-life: 146 h
[2]; male, sheep, plasma, other: local implant into the bulbourethral gland via rectum, 250 mg, male sheep, 250 mg controlled release implant, read-out: elimination half-life (converted)
  half-life: ~146 h
Dog prostate tissue; dog H2, 60 mg local prostate implant
  Palpation: ++
Dog prostate tissue; dog H2, after local administration of 60 mg
  Weight of prostate tissue (after): 13 g
Dog prostate tissue; dog H2, before local administration of 60 mg
  volume of prostate tissue (before): 13.3 cm^3
Dog prostate tissue; dog H3, 30 mg local prostate implant
  Palpation: 0
Dog prostate tissue; dog H3, after local administration of 30 mg
  Weight of prostate tissue (after): 17 g
Dog prostate tissue; dog H3, before local administration of 30 mg
  volume of prostate tissue (before): 12.4 cm^3
Dog prostate tissue; dog H4, 120 mg local prostate implant
  Palpation: +++
Dog prostate tissue; dog H4, after local administration of 120 mg
  Weight of prostate tissue (after): 13 g
Dog prostate tissue; dog H4, before local administration of 120 mg
  volume of prostate tissue (before): 11.3 cm^3
Dog prostate tissue; dogs, local prostate implant, three weeks
  anti-proliferate effect: clear anti-proliferate effect
Dog prostate tissue; two higher doses (60 mg, H2 and 120 mg, H4) in comparison with placebo (H1) and low dose (30 mg, H3)
  macroscopic effect based on volume (before) and weight (after): resulted in a macroscopic effect
[3]; 250 mg implant into bulbourethral gland
  androgen dependent side effect: no androgen dependent side effect observed
[3]; single intra-gland injection of 250 mg implant
  macroscopic effect on the androgen dependent tissue (bulbourethral gland): decreased volume and weight
